The values that follow come from US20140106967A1, “AUXIN PLANT GROWTH REGULATORS” (The Governors of The University of Alberta, priority 2011, published 2014).

For data set [1], the system named is pea pericarp. As to the kind of experiment: Split-pericarp assay: growth of deseeded pea pericarps attached to the plant. The data set is classed as in vivo, Pisum sativum. An excerpt:
In addition to GAs, developing pea seeds and pericarps contain two auxins, 4-chloroindole-3-acetic acid (4-Cl-IAA) and indole-3-acetic acid (IAA) (Magnus et al. 1997). A split-pericarp assay where test compounds are applied to the inner wall of split and deseeded pericarps that are still attached to the plant has been developed to examine the effects of exogenously applied growth substances on pericarp growth.
(§1) During early pea fruit growth, the physiological roles of 4-chloroindole-3-acetic acid (4-Cl-IAA) and IAA, both natural pea auxins, in regulating gibberellin (GA) 20-oxidase gene expression (PsGA20ox1) were tested with 4-position, ring-substituted auxins that have a range of biological activities (fruit growth). The effect of seeds, and natural and synthetic auxins (4-Cl-IAA, and IAA; 4-Me-IAA, 4-Et-IAA and 4-F-IAA, respectively), and auxin concentration (4-Cl-IAA) on PsGA20ox1 mRNA levels in pea pericarp were investigated over a 24 h treatment period. The ability of certain 4-substituted auxins to increase PsGA20ox1 mRNA levels in deseeded pericarp was correlated with their ability to stimulate pericarp growth.

In data set [2] the test system is PsGA20ox1, PsGA3ox1, PsGA2ox1. As to the kind of experiment: GA biosynthesis/catabolism gene expression in pea pericarp. To be noted: 24 h treatment period. The data set is classed as in vivo, Pisum sativum. The procedure:
as §1

In data set [3] the test system is pea pericarp. To be noted: cited from earlier work; for substitution for seeds in stimulating pericarp growth: deseeded pericarps, early pericarp growth (2 DAA); for substitution for the seeds in maintaining pea fruit growth in planta: in vivo.
Data set [4] deals with AtGA20ox and AtGA3ox genes. To be noted: non-pollinated fruits; cited from earlier work.
For data set [5], the system named is tomato fruit. To be noted: cited from earlier work.
The test system of data set [6] is canola cv. Peace. As to the kind of experiment: Greenhouse canola study, foliar auxin spray at green bud stage, with or without heat stress (Tables C1-C4). Type of data set: in vivo, Brassica napus. The procedure: Canola seeds (Brassica napus) from the cultivar Peace were planted at an approximate depth of 1 cm in 5 inch square plastic pots (6 inch pot depth; 4 seeds per pot) in 1:1 Sunshine #4 potting mix (Sun Gro Horticulture, Vancouver, Canada) and sand. The seedlings were thinned to one seedling per pot approximately 2 weeks after seeding. Plants were grown at the University of Alberta in a greenhouse from Nov. 14, 2011 to Mar. 5, 2012. The average temperature was approximately 18° C. day/16° C. night (Nov. 14, 2011 to Feb. 8, 2012) then 21° C. day/19° C. night from Feb. 8 to Mar. 5, 2012. The plants also received supplemental lighting daily (average photon flux density of 250 μE m^−2s^−2) for 16 hours per day (from 6 am to 10 pm).
The auxins, 4-methyl-indole-3-acetic acid (4-ME-IAA) or 4-chloro-indole-3-acetic acid (4-Cl-IAA) at 1×10^−7, 1×10^−6, 1×10^−5, or 1×10^−4M in aqueous 0.1% (v/v) Tween 80 or a control solution (aqueous 0.1% [v/v] Tween 80) were applied one time as a foliar spray to canola plants at the green bud stage (BBCH scale 51; prior to bolting when flower buds are visible from above, but they are tightly clustered and have not extended above smallest leaves surrounding the inflorescence). The experiment was arranged in a completely randomized design in the greenhouse.
The heat stress treatment was imposed by moving plants to receive the heat stress from the greenhouse into a growth chamber for 6 days. The light cycle began at 7:00 hours at a 19° C. air temperature. The heat treatment began at 11:00 hours (33° C. air temperature) and was maintained for 6 hours (until 17:00 hours). Following the heat treatment, the remainder of the light cycle was maintained at a 22° C. air temperature. The dark cycle (began at 23:00 hours) was maintained at 17° C. The photoperiod was 16 h light/8 h dark at an average photon flux density of 492 μE m^−2s^−2 using 54W/835/HO high fluorescent bulbs, Phillips, Holland. This heat treatment cycle was imposed for 6 days. The plants were returned to the greenhouse after the heat stress treatment to develop to maturity.

For data set [7], the system named is pea 'Carneval'. The experiment in a line: Growth chamber experiment 1, pea 'Carneval' sprayed with 4-Cl-IAA (Table P2). Type of data set: in vivo, Pisum sativum L. To be noted: for Seed yield per plant: sprayed near or at anthesis. The protocol:
For growth chamber experiment, seeds of ‘Carneval’ were planted at an approximate depth of 2.5 cm in 3-L plastic pots (4 seeds per pot and thinned to 2 plants per pot after approximately 2 weeks) in 1:1 Sunshine #4 potting mix (Sun Gro Horticulture, Vancouver, Canada) and sand. The experiment was arranged in a completely randomized design and grown at the University of Alberta in a growth chamber set at 19° C./17° C. (day/night) with a 16/8-h photoperiod under cool-white fluorescent lights (54W/835/HO high fluorescent bulbs, Phillips, Holland; 350 μE m^2 s^−2). For the heat stress treatment, plants were placed in a separate growth chamber with a 16/8-h photoperiod under cool-white fluorescent lights (F54/15/835/HO high fluorescent bulbs, Phillips, Holland) for 4 days where the temperature was cycled over a 24 hr period as follows: 33° C. air temperature for 6 hours per day (between 11:00 and 17:00 hrs) for 4 days during the light cycle; the remainder of the light cycle was maintained at a 22° C. air temperature; the dark cycle was maintained at 19° C. After the 4 day heat treatment, the plants were returned to the same growth chamber they were originally grown in, where they were taken to maturity.
For experiment 1, aqueous 4-chloro-indole-3-acetic acid (4-Cl-IAA) solutions at 1×10^−7, 1×10^−6, or 1×10^−5M in 0.1% (v/v) Tween 80 or aqueous 0.1% (v/v) Tween 80 (control) were applied one time as a spray to the entire plant to cover when the first flowering node of the main stem was near or at anthesis.

Data set [8] has as its system PsGA20ox1, PsGA3ox1, PsGA2ox1. As to conditions: in vivo; cited from earlier work.
Setting [9] is: 1×10^−4 M, heat stress 33° C. 6 h/day, 6 days (Table C4).
Where [10] appears, read: 1×10^−4 M, non-heat stress (Table C3).
Setting [11] is: 1×10^−5 M, heat stress 33° C. 6 h/day, 6 days (Table C4).
Where [12] appears, read: 1×10^−5 M, non-heat stress (Table C3).
The mark [13] stands for this setting: 1×10^−6 M, heat stress 33° C. 6 h/day, 6 days (Table C4).
The mark [14] stands for this setting: 1×10^−6 M, non-heat stress (Table C3).
The mark [15] stands for this setting: 1×10^−7 M, heat stress 33° C. 6 h/day, 6 days (Table C4).
Where [16] appears, read: 1×10^−7 M, non-heat stress (Table C3).

As for `CCc1cccc2[nH]cc(CC(=O)O)c12` [4-Et-IAA], in data set [1], the “pericarp growth (biological activity)” value was “minimal or no increase”. Besides, in data set [2], the “PsGA20ox1 mRNA levels in deseeded pericarp” value (shortened to “PsGA20ox1 mRNA levels”) is “minimal or no increase”.
On to `O=C(O)Cc1c[nH]c2cccc(F)c12` [4-F-IAA], for which the “pericarp growth (biological activity)” value in data set [1] is given as “minimal or no increase”. Moreover, the “PsGA20ox1 mRNA levels” value in data set [2] was “minimal or no increase”.
For `O=C(O)Cc1c[nH]c2ccccc12` [IAA, indole-3-acetic acid, reference compound], the “pericarp growth (biological activity)” value in data set [1] is “not effective”. In data set [3], the “substitution for seeds in stimulating pericarp growth” value was “cannot” and the “substitution for the seeds in maintaining pea fruit growth in planta” value is “not”. In addition, the “PsGA20ox1 mRNA levels” value in data set [2] is listed as “not effective”.
In the case of `O=C(O)COc1ccc(Cl)cc1Cl` [2,4-D], the “expression of specific AtGA20ox and AtGA3ox genes” value in data set [4] is given as “up-regulated”. Moreover, in data set [5], the parthenocarpic fruit growth result was “induced parthenocarpic tomato fruit growth”.
Consider `O=C(O)Cc1c[nH]c2cccc(Cl)c12` [4-Cl-IAA, 4-chloroindole-3-acetic acid], for which the leaf epinasty result in data set [6] (1×10^−4 M, 24 hours after treatment, milder under heat stress) is “leaf epinasty was observed”. Also, in data set [6] (setting [9]), the “% pod set” value is listed as 49 ± 4%, the Seed yield is 4.9 ± 0.8 g, the “Total number of flowers” value turned out to be 312 ± 32 and the “Total number of pods with developing seeds” value worked out at 151 ± 17. Moreover, in data set [6] (setting [9]), the “Total number of racemes” value amounted to 12 ± 1 and the “Total number undeveloped pods” value is 45 ± 15. Besides, in data set [6] (setting [10]), the “% pod set” value is reported as 54 ± 4%, the Seed yield is 4.0 ± 0.3 g, the “Total number of flowers” value came to 201 ± 24 and the “Total number of pods with developing seeds” value came out at 106 ± 8. In data set [6] (setting [10]), the “Total number of racemes” value is given as 8 ± 1 and the “Total number undeveloped pods” value is 17 ± 4. In data set [6] (1×10^−4 M, non-stress), the “reduction in number of racemes per plant vs control” value is given as 33%, the “reduction in seed yield vs control” value came out at 26% and the “reduction in total number of developing pods per plant vs control” value is listed as 31%. In data set [6] (setting [11]), the “% pod set” value was determined as 48 ± 2%, the Seed yield is reported as 5.5 ± 1.0 g, the “Total number of flowers” value was 414 ± 65 and the “Total number of pods with developing seeds” value came out at 198 ± 33. In data set [6] (setting [11]), the “Total number of racemes” value stood at 14 ± 2 and the “Total number undeveloped pods” value was 34 ± 6. Moreover, in data set [6] (1×10^−5 M, non-heat stress), the “increase in total number of pods with developing seeds per plant vs control” value was 27%. In data set [6] (setting [12]), the “% pod set” value is 57 ± 6%, the Seed yield turned out to be 5.8 ± 1.0 g, the “Total number of flowers” value stood at 362 ± 53 and the “Total number of pods with developing seeds” value is given as 195 ± 21. For the same molecule, in data set [6] (setting [12]), the “Total number of racemes” value was 14 ± 2 and the “Total number undeveloped pods” value was determined as 47 ± 19. In addition, in data set [6] (setting [13]), the “% pod set” value worked out at 53 ± 3%, the Seed yield is listed as 6.8 ± 0.5 g, the “Total number of flowers” value worked out at 430 ± 39 and the “Total number of pods with developing seeds” value stood at 229 ± 30. Besides, in data set [6] (setting [13]), the “Total number of racemes” value was 15 ± 1 and the “Total number undeveloped pods” value was 42 ± 5. In addition, in data set [6] (1×10^−6 M, mild heat stress), the “seed yield vs control” value was “significant increase”. Besides, in data set [6] (setting [14]), the “% pod set” value is 59 ± 4%, the “Total number of flowers” value is given as 290 ± 26, the “Total number of pods with developing seeds” value is on record as 174 ± 25 and the “Total number of racemes” value came out at 12 ± 1. Further, in data set [6] (setting [14]), the “Total number undeveloped pods” value is 29 ± 4. Besides, in data set [6] (setting [15]), the “% pod set” value is listed as 46 ± 3%, the Seed yield came to 6.0 ± 0.9 g, the “Total number of flowers” value stood at 443 ± 70 and the “Total number of pods with developing seeds” value turned out to be 197 ± 15. In data set [6] (setting [15]), the “Total number of racemes” value is given as 13 ± 2 and the “Total number undeveloped pods” value is reported as 43 ± 14. Further, in data set [6] (1×10^−7 M, non-heat stress), the “increase in percent pod set vs control” value is listed as 21% and the “increase in total number of pods with developing seeds per plant vs control” value is on record as 18%. In addition, in data set [6] (setting [16]), the “% pod set” value turned out to be 64 ± 4%, the Seed yield turned out to be 6.2 ± 0.6 g, the “Total number of flowers” value was determined as 287 ± 29 and the “Total number of pods with developing seeds” value came to 181 ± 14. Besides, in data set [6] (setting [16]), the “Total number of racemes” value is 10 ± 1 and the “Total number undeveloped pods” value is 26 ± 9. Further, the “pericarp growth (biological activity)” value in data set [1] was “greatest increase”. In addition, in data set [7] (1×10^−5 M), the “increase in seed yield vs control” value stood at 62% and the “Seed yield per plant” value is reported as 18.28 ± 1.55 g. Moreover, in data set [7] (1×10^−6 M), the “increase in seed yield vs control” value is 65% and the “Seed yield per plant” value is reported as 18.61 ± 1.65 g. Besides, the “Seed yield per plant” value in data set [7] (1×10^−7 M) is listed as 13.60 ± 1.33 g. In data set [3], the “substitution for seeds in stimulating pericarp growth” value is “can substitute for seeds in stimulating pericarp growth” and the “substitution for the seeds in maintaining pea fruit growth in planta” value is given as “can substitute for the seeds”. Also, in data set [8], the “gene expression of the GA catabolic gene PsGA2ox1” value is reported as “repress”; the “pericarp GA biosynthesis gene expression, PsGA20ox1 and PsGA3ox1” value is given as “stimulate”. Further, the “PsGA20ox1 mRNA levels” value in data set [2] is reported as “greatest increase”.
